Assay: photoluminescence quantum yield (fraction); solvent given as SMILES

COc1ccccc1C1=NC2c3cccc4cccc(c34)C2N1c1ccccc1 (stereo not given)
photoluminescence quantum yield (in Cc1ccccc1): 0.01

CCN(CC)c1ccc2c(c1)oc(=O)c1c(-c3ccccc3C(=O)O)c3ccc(=[N+](CC)CC)cc-3oc12
photoluminescence quantum yield (in CCO): 0.21
photoluminescence quantum yield (in ClC(Cl)Cl): 0.51
photoluminescence quantum yield (in O): 0.01

COc1ccc(-c2nc(-c3ccccc3O)c(-c3ccccc3O)n2-c2ccc(C)cc2)cc1
photoluminescence quantum yield (in C1CCOC1): 0.01
photoluminescence quantum yield (in CS(C)=O): 0.01
photoluminescence quantum yield (in ClC(Cl)Cl): 0.01
photoluminescence quantum yield (in ClCCl): 0.04

CCCCCCCCOc1ccc(C#Cc2c3cc4ccccc4cc3c(C#Cc3ccc(F)cc3)c3cc4ccccc4cc23)cc1
photoluminescence quantum yield (in ClCCl): 0.03

CCCC1=Cc2nc1ccc1[nH]c(cc1CCC)c1nc(c(NC(C)=O)cc3[nH]c2cc3CCC)C(CCC)=C1
photoluminescence quantum yield (in Cc1ccccc1): 0.1

CC(C)[Si]1(C(C)C)c2cc(N(C)C)ccc2-c2ccc(C(F)(F)F)cc21
photoluminescence quantum yield (in C1CCCCC1): 0.37
photoluminescence quantum yield (in CC#N): 0.4
photoluminescence quantum yield (in CCO): 0.28
photoluminescence quantum yield (in CCOCC): 0.35
photoluminescence quantum yield (in CS(C)=O): 0.17
photoluminescence quantum yield (in ClCCl): 0.33
photoluminescence quantum yield (in c1ccccc1): 0.29

c1ccc(-c2c3ccccc3c(-c3ccccc3)c3ccccc23)cc1
photoluminescence quantum yield (in C1CCCCC1): 0.97

CC(C)(C)c1cc(-c2c3cc(c(-c4cc(C(C)(C)C)cc(C(C)(C)C)c4)c4ccc([nH]4)c(-c4ccc(Br)cc4)c4nc(c(-c5ccc(Br)cc5)c5ccc2[nH]5)C=C4)N=C3)cc(C(C)(C)C)c1
photoluminescence quantum yield (in ClCCl): 0.0127

CC1=[N+]2C(=C(Oc3ccc4c(c3)CC[C@@H]3[C@@H]4CC[C@]4(C)C(=O)CC[C@@H]34)c3ccc(C)n3[B-]2(F)F)C=C1c1cc2n(c1)[B-](F)(F)[N+]1=CC=CC1=C2c1c(C)cc(C)cc1C
photoluminescence quantum yield (in C1CCCCC1): 0.52
photoluminescence quantum yield (in CCOC(C)=O): 0.12

C(#Cc1cccc2nsnc12)c1ccc(-n2c3ccccc3c3ccccc32)cc1
photoluminescence quantum yield (in ClCCl): 0.54

CCC1(CC)c2cc(C#Cc3cc(C#Cc4ccc5c(c4)C(CC)(CC)c4cc(N(c6ccccc6)c6ccccc6)ccc4-5)c4ccc5c(C#Cc6ccc7c(c6)C(CC)(CC)c6cc(N(c8ccccc8)c8ccccc8)ccc6-7)cc(C#Cc6ccc7c(c6)C(CC)(CC)c6cc(N(c8ccccc8)c8ccccc8)ccc6-7)c6ccc3c4c65)ccc2-c2ccc(N(c3ccccc3)c3ccccc3)cc21
photoluminescence quantum yield (in Cc1ccccc1): 0.43

Cc1cc(N2c3ccccc3C(C)(C)c3ccccc32)ccc1-c1ncnc(-c2ccc(N3c4ccccc4C(C)(C)c4ccccc43)cc2C)c1C
photoluminescence quantum yield (in O=P(c1ccccc1)(c1ccccc1)c1ccccc1Oc1ccccc1P(=O)(c1ccccc1)c1ccccc1): 0.47

CCCN1c2ccccc2Sc2cc(/C=C\c3cc(=O)oc4c(O)c(O)ccc34)ccc21
photoluminescence quantum yield (in ClC(Cl)Cl): 0.37

COc1ccc(-c2c3ccccc3c3n2[B-](F)(F)[N+]2=Cc4c5ccccc5c(-c5ccc(OC)cc5)n4[B-](F)(F)[N+]2=C3)cc1
photoluminescence quantum yield (in CC#N): 0.22
photoluminescence quantum yield (in CCCCCC): 0.32
photoluminescence quantum yield (in CN(C)C=O): 0.23
photoluminescence quantum yield (in Cc1ccccc1): 0.31
photoluminescence quantum yield (in ClCCl): 0.31

Cc1ccc(C2C3=C(CCCC3=O)Nc3c2c(=O)oc2ccccc32)cc1 (stereo not given)
photoluminescence quantum yield (in CS(C)=O): 0.83

Cc1ccccc1[B-]1(c2ccccc2C)n2nc(C(F)(F)F)cc2-c2c3ccccc3cc[n+]21
photoluminescence quantum yield (in C1CCCCC1): 0.0285
photoluminescence quantum yield (in Cc1ccccc1): 0.0259
photoluminescence quantum yield (in ClCCl): 0.0197

C[n+]1ccc(/C=C/c2cc[n+](C)cc2)cc1
photoluminescence quantum yield (in CC#N): 0.015

O=C(Nc1ccccc1[N+](=O)[O-])c1ccc2oc(-c3cc4ccccc4oc3=O)nc2c1
photoluminescence quantum yield (in ClCCl): 0.12

CC1=C(c2ccccc2)C(C)=[N+]2C1=C(c1c(-c3ccccn3)nc3ccccn13)c1c(C)c(-c3ccccc3)c(C)n1[B-]2(F)F
photoluminescence quantum yield (in ClCCl): 0.785

O=c1c2cc(C#Cc3ccc(Cl)cc3)ccc2nc2ccc(C#Cc3ccc(Cl)cc3)cn12
photoluminescence quantum yield (in ClCCl): 0.33

Cc1ccc(/C2=c3\cc/c(o3)=C(\c3ccc(C)cc3)c3ccc([nH]3)-c3ccc4n3[P-](=O)(=O)[N+]3=C(C=CC3=C4c3ccco3)c3ccc2[nH]3)cc1
photoluminescence quantum yield (in ClC(Cl)Cl): 0.09

Cc1nn(-c2ccccc2)c(C2=NN(c3ccc(Br)cc3)[C@@H](c3ccccc3)[C@@H]2c2ccccc2)c1C#N
photoluminescence quantum yield (in C1CCCCC1): 0.56
photoluminescence quantum yield (in C1CCOC1): 0.65
photoluminescence quantum yield (in C1COCCO1): 0.6
photoluminescence quantum yield (in CC#N): 0.41
photoluminescence quantum yield (in CCCCCCC): 0.43
photoluminescence quantum yield (in CCO): 0.49
photoluminescence quantum yield (in CN(C)C=O): 0.6
photoluminescence quantum yield (in CO): 0.34
photoluminescence quantum yield (in O): 0.18
photoluminescence quantum yield (in OCCO): 0.45

Fc1cccc(C2=Cc3ccc4ccccc4[n+]3[B-](F)(F)O2)c1
photoluminescence quantum yield (in ClC(Cl)Cl): 0.47

c1ccc(-c2nc(-c3ccccc3)nc(-c3cc(-n4c5ccccc5c5ncccc54)cc(-n4c5ccccc5c5ncccc54)c3)n2)cc1
photoluminescence quantum yield (in O=P(c1ccccc1)(c1ccccc1)c1ccc2oc3ccc(P(=O)(c4ccccc4)c4ccccc4)cc3c2c1): 0.21

COC1=[N+]2C(=C(c3ccccc3)c3cc(SC#N)c(OC)n3[B-]2(F)F)C=C1SC#N
photoluminescence quantum yield (in CC#N): 0.1
photoluminescence quantum yield (in CCCCCC): 0.1
photoluminescence quantum yield (in CCOC(C)=O): 0.11
photoluminescence quantum yield (in CO): 0.15
photoluminescence quantum yield (in ClCCl): 0.17

CCCC1(CCC)c2cc(-c3cccc(Cc4ccc(/C=C/c5ccccc5)cc4)c3)ccc2-c2ccc(-c3cccc(Cc4ccc(/C=C/c5ccccc5)cc4)c3)cc21
photoluminescence quantum yield (in C1CCCCC1): 0.08

COc1ccc(C2=C3C(C)=CC(C=Cc4ccc(C(=O)OC5C[C@H]6CCC5(C)C6(C)C)cc4)=[N+]3[B-](F)(F)n3c(C)cc(C)c32)cc1 (stereo not given in full)
photoluminescence quantum yield (in Cc1ccccc1): 0.41

CCN(CC)c1ccc2cc(/C=C(\C#N)c3nc4ccccc4o3)c(=O)oc2c1
photoluminescence quantum yield (in C1COCCO1): 0.0097
photoluminescence quantum yield (in CC#N): 0.0071
photoluminescence quantum yield (in CCO): 0.0158
photoluminescence quantum yield (in CCOC(C)=O): 0.0068
photoluminescence quantum yield (in CN(C)C=O): 0.0307
photoluminescence quantum yield (in CO): 0.0157
photoluminescence quantum yield (in CS(C)=O): 0.0263
photoluminescence quantum yield (in Cc1ccccc1): 0.0061
photoluminescence quantum yield (in ClCCl): 0.0066

Cn1ncc2c3c(C#N)c4c5ccccc5n(C)c4nc3ccc21
photoluminescence quantum yield (in CCOC(C)=O): 0.51

N#Cc1c(C#N)c(-n2c3ccccc3c3ccccc32)c(-n2c3ccccc3c3ccccc32)c(-n2c3ccccc3c3ccccc32)c1-n1c2ccccc2c2ccccc21
photoluminescence quantum yield (in Cc1ccccc1): 0.744

C/C(=N\Nc1ccc(C#N)cc1)c1ccccn1
photoluminescence quantum yield (in CO): 0.28

CC(C)(C)OC(=O)n1ccc2c3ccc4cccc5ccc(cc21)c3c54
photoluminescence quantum yield (in CCOC(C)=O): 0.27

CC1=CC(c2ccc3ccccc3c2)=[O+][B-]2(OC(=O)C(=O)O2)O1
photoluminescence quantum yield (in CC#N): 0.03
photoluminescence quantum yield (in ClC(Cl)(Cl)Cl): 0.06

Cc1cc2cc(C)c3c4ccccc4[nH]c3c2s1
photoluminescence quantum yield (in ClCCl): 0.047

Cc1cc(-c2ccc3ccccc3c2)cc(C)[o+]1
photoluminescence quantum yield (in ClCCl): 0.64

CC1(C)c2ccccc2N(c2ccc3c(c2)c2ccccc2c2nc4ccccc4nc32)c2ccccc21
photoluminescence quantum yield (in c1cc(-c2cccc(-n3c4ccccc4c4ccccc43)c2)cc(-n2c3ccccc3c3ccccc32)c1): 0.42

FC(F)(F)c1ccc(B2c3ccccc3Nc3ccccc32)c(C(F)(F)F)c1
photoluminescence quantum yield (in ClCCl): 0.9

CN(C)c1ccc2c(-c3cc(C(=O)[O-])ccc3C(=O)[O-])c3ccc(=[N+](C)C)cc-3oc2c1
photoluminescence quantum yield (in CCO): 0.59
photoluminescence quantum yield (in O): 0.45

CCN(CC)c1ccc(-n2cccc2)cc1
photoluminescence quantum yield (in CC#N): 0.13
photoluminescence quantum yield (in CCCCCC): 0.11

CCCCCCOc1cc(N(CC)CC)ccc1/C=C/C(=C(C#N)C#N)c1ccc2c(c1)c1ccccc1n2CC
photoluminescence quantum yield (in ClCCl): 0.121

CN(C)c1ccc(/C=C/c2ncc3ccccc3n2)cc1
photoluminescence quantum yield (in CC#N): 0.06
photoluminescence quantum yield (in ClCCl): 0.21

Cc1cc(-c2nc3c4ccccc4c4ccccc4c3n2-c2ccc(C(C)(C)C)cc2)ccc1-c1ccc(-c2c(-c3ccccc3)nc3ccccn23)cc1
photoluminescence quantum yield (in ClCCl): 0.77

Reference: the Deep4Chem optical property database
